Experimental data: patent US20180125988A1, “TARGETED XTEN CONJUGATE COMPOSITIONS AND METHODS OF MAKING SAME” (AMUNIX OPERATING INC., priority 2014, published 2018)
Where a SMILES comes first, the peptide text is derived from it. [ ]: non-standard residue; d: D form. The star is where a group is joined. Dolaproine = CO[C@@H]([C@@H]1CCCN1)[C@@H](C)C(=O)O; Dil = CC[C@H](C)[C@H](NC)[C@@H](CC(=O)O)OC; X1 = C[C@@H](N*)[C@@H](O)c1ccccc1; NMeV = CN[C@H](C(=O)O)C(C)C

Experiments:
[1] = test system: folate receptor-positive KB cell line; test: CellTiter-Glo anti-proliferation assay, 3xFA(γ),3xMMAE-XTEN on KB cells with or without folic acid competitor; assay type: cell-based; details: Homo sapiens, no folic acid competitor
Description: The ability to selectively target and kill cells bearing folate receptors was evaluated. Test articles of free MMAE, a non-targeting 3xMMAE-XTEN conjugate (XTEN linked to toxin) and the folate receptor-targeted 3xFA(γ),3xMMAE-XTEN conjugate were evaluated in a CellTiter-Glo anti-proliferation assay using the folate receptor-positive KB cell line. As culture media contain high folic acid content, KB cells were grown in folic acid-free media containing 10% heat-inactivated fetal calf serum at 37° C., 5% CO2 for at least 7 days prior to the commencement of the cell viability experiment, This medium was also utilized for the execution of the experiment. In brief, KB cells were plated at 10,000 cells per well onto a 96-well microtiter assay plate. KB cells were allowed to adhere to the plate by an overnight incubation at 37° C., 5% CO2. The spent media was then removed and wells designated to contain folic acid competitor received assay medium containing folic acid, while wells not designated to have folic acid competitor received assay medium only. The plate was incubated for 30 min at 37° C., 5% CO2 before the assay media was aspirated and plate washed with assay media. […] After the appropriate incubation period, CellTiter-Glo reagent was added and the plate was read on a luminometer. The IC50 of each test article was determined using a 4 parameter logistic curve fit using GraphPad Prism.

[2] = in Man; cited from earlier work

Compound	IC50 [1] [nM]	half-life [2]
CC[C@H](C)[C@@H]([C@@H](CC(=O)N1CCC[C@H]1[C@H](OC)[C@@H](C)C(=O)N[C@H](C)[C@@H](O)c1ccccc1)OC)N(C)C(=O)[C@@H](NC(=O)[C@@H](NC)C(C)C)C(C)C [MMAE, monomethyl auristatin E] (H-[NMeV]V[Dil][Dolaproine]-X1)	0.8	–
pyroGlu-His-Trp-Ser-Tyr-Gly-Leu-Arg-Pro-Gly-NH2 [LHRH]	–	less than 4 minutes
